The subject of one series is ΔN28-CofB. Kind of series: Isothermal titration calorimetry, interaction with ΔN28-CofB. It is filed as binding, enterotoxigenic Escherichia coli (ETEC). The following applies: ITC; for Kd: 25° C., 20 mM Tris-HCl (pH 8.0), 150 mM NaCl, ΔN28-CofB in terms of trimer, read-out: dissociation constant Kd value; for binding affinity to ΔN28-CofB compared with the binding affinity between CofJ and ΔN28-CofB: stronger than CofJ. As to the method:
The expression and purification methods were carried out according to past papers (Fukakusa, S, et al. Acta Cryst. 2012, D68, 1418-1429; Kawahara, K, et al. J. Mol. Biol, 2016, 428, 1209-1226).
Interaction analysis was performed using CofB, CofJ and ΔN24-CofJ prepared by the above methods. An isothermal titration calorimeter Microcal iTC 200 (manufactured by GE Healthcare) was used for analysis of the interaction between the secretory protein CofJ and ΔN28-CofB. A 0.59 mM CofJ solution was charged in a titration syringe and a 28.5 μM (in terms of trimer) ΔN28-CofB solution was charged in a measuring cell, respectively, and the interaction of them was evaluated by directly observing heat changes that occur upon dropping the CofJ solution into the ΔN28-CofB solution. Titration conditions were such that the initial dropping amount was 1 μL, the dropping amount at the second and subsequent times was 2 μL, and dropping was performed 20 times in total every 120 seconds. The measurement temperature was 25° C., and the solvent was 20 mM Tris-HCl (pH 8.0), 150 mM NaCl. An exothermic change was observed by dropping the CofJ solution, which converged to the same level as the heat of dilution as the titration progressed. As a result of analysis of the obtained data using an analysis software Origin (Microcal), binding of CofJ and ΔN28-CofB was observed. The dissociation constant Kd value of both was 0.2 μM.
Next, in order to investigate the contribution to binding to pili in the N-terminal region (1 to 24) of the secretory protein CofJ, analysis of the interaction between ΔN24-CofJ and ΔN28-CofB was carried out using an isothermal titration calorimeter Microcal iTC 200 (manufactured by GE Healthcare). A 0.59 mM ΔN24-CofJ solution was charged in a titration syringe and a 28.5 μM (in terms of trimer) ΔN28-CofB solution was charged in a measuring cell, respectively, and the interaction of them was evaluated by directly observing heat changes that occur upon dropping the ΔN24-CofJ solution into the ΔN28-CofB solution. No change in caloric value due to dropping of the ΔN24-CofJ solution was observed.
Furthermore, in order to investigate the contribution to binding to pili in the N-terminal region (1 to 24) of the secretory protein CofJ, analysis of the interaction between a synthetic peptide consisting of 24 amino acid residues at the N terminal of CofJ (CofJ^1-24 peptide) purchased from Scrum Co., Ltd. and ΔN28-CofB was carried out using an isothermal titration calorimeter Microcal iTC200 (manufactured by GE Healthcare) in the same manner as described above. A 2 mM CofJ^1-24 peptide solution was charged in a titration syringe and a 33.9 μM (in terms of trimer) ΔN28-CofB solution was charged in a measuring cell, respectively, and the interaction of them was evaluated by directly observing heat changes that occur upon dropping the CofJ^1-24 peptide solution into the ΔN28-CofB solution. An exothermic change was observed by dropping the CofJ^1-24 peptide solution, which converged to the same level as the heat of dilution as the titration progressed. As a result of analysis of the obtained data using an analysis software Origin, binding of the CofJ^1-24 peptide and ΔN28-CofB was observed. The dissociation constant Kd value of both was 4 μM.
Next, in order to investigate the binding specificity of the CofJ^1-24 peptide, analysis of the interaction between a synthetic random peptide (CofJpepR) purchased from Scrum Co., Ltd. and ΔN28-CofB was carried out using an isothermal titration calorimeter Microcal iTC 200 (manufactured by GE Healthcare). A 2 mM random peptide solution was charged in a titration syringe and a 28.5 μM (in terms of trimer) ΔN28-CofB solution was charged in a measuring cell, respectively, and the interaction of them was evaluated by directly observing heat changes that occur upon dropping the […] into the ΔN28-CofB solution. No change in caloric value due to dropping of the random peptide solution was observed. […]
Background: ITC needs no label: the signal is the heat of the interaction.

The test system of series [1] is binding of CofJ and Trx-His-ΔN28-CofB. In words: Pull down assay using a Ni column, inhibition of CofB/CofJ binding. Details: species or system enterotoxigenic Escherichia coli (ETEC). The following applies: SDS-PAGE. The source says: To examine whether the CofJ^1-24-GCN4 inhibitory peptide is capable of inhibiting the binding of CofB and CofJ, it was confirmed in the in vitro experiment system by pull down assay using a Ni column. For experiments, ΔN28-CofB (Trx-His-ΔN28-CofB), CofJ, CofJ^1-24-GCN4, a CofJ^1-24 peptide and a peptide (CofJpepR) in which the amino acid sequence of the CofJ^1-24 peptide was randomized, with added thioredoxin tag (Trx) and His tag, were used. The sequence of CofJpepR is […] (SEQ ID NO: 22).
Solutions mixed so that the concentration of Trx-His-ΔN28-CofB was 1 μM and the concentration of CofJ^1-24-GCN4 was (0, 0.5, 1.0, 2.0, 5.0, 10.0 μM) were allowed to stand still on ice overnight. Further, CofJ was mixed so that the final concentration became 1 μM, and the mixtures were allowed to stand still on ice for 1 hour, to obtain experiment samples. Each sample was applied to a Ni column equilibrated with 20 mM Tris-HCl, 150 mM NaCl, pH 8.0, and the column was washed with 20 mM Tris-HCl, 150 mM NaCl, 15 mM Imidazole, pH 8.0. Thereafter, elution was performed with 20 mM Tris-HCl, 150 mM NaCl, 300 mM Imidazole, pH 8.0, and the eluted fraction was confirmed by SDS-PAGE.
Also for the CofJ^1-24 peptide and CofJpepR, the inhibition ability thereof was investigated by the same method. Specifically, solutions mixed so that the concentration of Trx-His-ΔN28-CofB was 1 μM and the concentration of the CofJ^1-24 peptide and CofJpepR was 1000 μM were allowed to stand still on ice overnight. Further, CofJ was mixed so that the final concentration became 1 μM, and the mixtures were allowed to stand still on ice for 1 hour, to obtain experiment samples. The pull down assay was performed in the same manner as described above. […] From this, it is considered that CofJ^1-24-GCN4 can inhibit the binding between CofB and CofJ by strongly binding with CofB by trimerizing.
In order to investigate whether the CofJ^4-16-GCN4 inhibitory peptide can inhibit the binding of CofB and CofJ, it was confirmed in the in vitro experimental system by a pull down assay using a Ni column. For the experiment, ΔN28-CofB (Trx-His-ΔN28-CofB), CofJ and CofJ^4-16-GCN4, with added thioredoxin tag (Trx) and His tag (His), were used.
Solutions mixed so that the concentration of Trx-His-ΔN28-CofB was 1 μM and the concentration of CofJ^4-16-GCN4 was (0, 0.5, 1.0, 2.0, 5.0, 10.0 μM) were allowed to stand still on ice overnight. Further, CofJ was mixed so that the final concentration became 1 μM, and the mixtures were allowed to stand still on ice for 1 hour, to obtain experiment samples. Each sample was applied to a Ni column equilibrated with 20 mM Tris-HCl, 150 mM NaCl, pH 8.0, and the column was washed with 20 mM Tris-HCl, 150 mM NaCl, 15 mM Imidazole, pH 8.0. […]

Series [2] relates to HB101 cof adhesion to Caco2 cells. In words: ETEC adhesion inhibitory activity using Caco2 cells. It is filed as cell-based, Escherichia coli. To be noted: 1, 10, 100 μg/mL. The method, then: First, Caco2 cells were dispersed using Dulbecco's Modified Eagle's Medium (DMEM) containing 50 μg/mL gentamicin and 10% fetal bovine serum, the cell concentration was measured using a blood cell counting chamber and diluted to 3.0×10^5 cells/mL. Dilution liquid was added to a 6-well plate each in an amount of 500 μL, and culture was performed by allowing the plate to stand still in a CO2 incubator at 5% CO2 and 37° C. for 48 hours. The cultured Caco2 cells were washed with PBS twice. After washing, DMEM containing 100 μg/mL ampicillin and 1% D-mannose was filtrated by passing through a 0.22 μm filter, then, the solution was added each in an amount of 500 μL to each well.
Next, a small amount of the glycerol stock of HB101 cof was scraped off and added to LB medium containing 100 μg/mL ampicillin, and shaking culture was carried out overnight at 25° C. The culture liquid was suitably diluted and OD660 of the culture liquid was calculated using a turbidimeter. The culture liquid was serially diluted and CFU (colony forming unit) was measured. From the measured CFU, the concentration (cells/mL) of HB101 cof at OD660=1.0 was calculated. This calculated value was used to determine the concentration of HB101 cof later. […]
ETEC adhesion inhibitory activity was evaluated in the same manner as in Example 9 using CofJ^4-16-GCN4. […]

The mark [3] stands for this setting: peptide 1000 μM (1000 times that of CofJ, 1 μM).
The mark [4] stands for this setting: peptide premixed at a concentration not lower than that of CofJ (1 μM), 0.5-10.0 μM tested.

As for “NPSGFDKSGSSTTRTPAMSVIVDE [CofJpepR, reference compound]”, in the series on ΔN28-CofB (28.5 μM ΔN28-CofB in cell), the “binding to ΔN28-CofB (change in caloric value)” value is reported as “do not bind”. Moreover, the “inhibition of the binding of CofJ and Trx-His-ΔN28-CofB” value in series [1] (setting [3]) is on record as “can not be inhibited at all”.

One may read the Kd as the constant that tells how readily two partners part at equilibrium. Consider “SPSSSEGGAFTVNMPKTSTVDDIR [CofJ^1-24 peptide, reference compound]”, for which, at ΔN28-CofB, the Kd stood at 4000 nM. In series [1] (setting [3]), the “inhibition of the binding of CofJ and Trx-His-ΔN28-CofB” value is “hardly inhibited”.

On to “CofJ^1-24-GCN4: GPLG, CofJ 1-24 sequence (SEQ ID NO: 1), linker TSGGG (SEQ ID NO: 9) and GCN4 sequence (SEQ ID NO: 6); expressed in E. coli”, for which, at ΔN28-CofB, the Kd is 40 nM; the “binding affinity to ΔN28-CofB compared with the binding affinity between CofJ and ΔN28-CofB” value is “about 5 times”. In series [1] (setting [4]), the “inhibition of the binding of CofJ and Trx-His-ΔN28-CofB” value is “strongly inhibited”. Besides, in series [2], the “inhibition of colonization of HB101 cof to Caco2 cells” value is on record as “inhibits colonization of HB101 cof to Caco2 cells in concentration-dependent manner”.

As for “CofJ^4-16-GCN4: GPLG, SSEGGAFTVNMPK (SEQ ID NO: 23), linker TSGGG (SEQ ID NO: 9) and GCN4 sequence (SEQ ID NO: 6); expressed in E. coli”, at ΔN28-CofB, the Kd stood at 80 nM; the “binding affinity to ΔN28-CofB compared with the binding affinity between CofJ and ΔN28-CofB” value is “about 2.5 times”. For the same substance, in series [1] (setting [4]), the “inhibition of the binding of CofJ and Trx-His-ΔN28-CofB” value is “strongly inhibited”. Besides, the “inhibition of colonization of HB101 cof to Caco2 cells” value in series [2] is reported as “inhibits colonization of HB101 cof to Caco2 cells in concentration-dependent manner”.

On to “SSEGGAFTVNMPK [CofJ^4-16 peptide, reference compound]”, for which, on ΔN28-CofB, the Kd came to 4000 nM.
